# According to patent publication EP2265599B1, “CRYSTAL FORM OF PHENYLAMINOPYRIMIDINE DERIVATIVE” (Natco Pharma Limited, priority 2008, dated 2009):
# Tests used:
# [1] = system: K562 luciferase expressing cells; experiment: Leukemic survival study, K562 luciferase expressing cells implanted intraperitoneally; format: in vivo, nude mice
# Baf3T315I = experiment: In vivo anti-leukemic activity, blast cell count in blood smears, Baf3T315I implanted nude mice; conditions: Imatinib 10mg/kg, AN019 20mg/kg, AN024 20mg/kg, oral gavage or ip from day 15; up to day 42
# Excerpt: (§1) Blood smears were obtained via the tail vein or via the femoral vein every 6th day and blast cells counted and graphically represented.
# (§2) Abdominal swelling and decrease in activity was monitored daily, blood smear taken via the tail vein or the femoral vein every 6th day and H&E stained as per standard protocols. 42 days after implantation, mice were sacrificed and spleens harvested.
# (§3) Nude mice were intraperitoneally implanted with Baf3 mutant cells (wt, T315I, M351T or E255K). […] Blood was drawn from the femoral vein or tail vein every 6th day and blast cell count determined and graphically represented.
# 5310 cells = experiment: In vitro angiogenic assay (conditioned media on human dermal endothelial cells), 5310; format: cell-based; conditions: control conditions and after radiation
# Protocol: (§4) The in vitro angiogenesis of 4910, 5310 and U87 glioma cells and MDAMB231 and ZR71 breast cancer cells in the presence of specified concentrations of compounds were determined as follows, cells (2x10^4/well) were seeded in 8-well chamber slides and were treated with various concentrations of test compounds. After a 24 h incubation period, the conditioned media was removed and added to a 4x 10^4 human dermal endothelial cell (monolayer in 8-well chamber slides) and the human dermal endothelial cells were allowed to grow for 72 h. Cells were then fixed in 3.7% formaldehyde and stained with H&E and photographed.
# 5310 = experiment: Matrigel invasion assay (modified Boyden chamber), 5310; format: cell-based; conditions: cells treated 48 h
# Protocol: (§5) The in vitro invasiveness of 4910, 5310 and U87 glioma cells and MDAMB231 and ZR71 breast cancer cells in the presence of specified concentrations of compounds were assessed using a modified Boyden chamber assay. Cells were treated with these compounds for 48 h. 1x10^6 cells were suspended in 600µl of serum-free medium supplemented with 0.2% BSA and placed in the upper compartment of the transwell chambers (Coming Costar Fischer Scientific Cat #07-200-158, Pittsburgh PA) coated with Matrigel (0.7 mg/ml). The lower compartment of the chamber was filled with 200 µl of serum medium and the cells were allowed to migrate for 24 h. After incubation, the cells were fixed and stained with Hema-3 and quantified as previously described (Mohanam et al. 1993). The migrated cells were imaged microscopically to determine the reduction in invasiveness induced by the compounds of this invention.
# (§6) The in vitro invasiveness of 4910, 5310 and U87 glioma cells and MDAMB231 and ZR71 breast cancer cells in the presence of specified concentrations of compounds were assessed using a modified Boyden chamber assay. Cells were treated with these compounds for 48 h.
# Baf3M351T = experiment: In vivo anti-leukemic activity, blast cell count in blood smears, Baf3M351T implanted nude mice; conditions: Imatinib 10mg/kg, AN019 20mg/kg, AN024 20mg/kg, oral gavage or ip from day 15; up to day 42
# Excerpt: as §1, §2, §3
# [2] = system: K562 luc human leukemia cells; experiment: Drug effectiveness (De) from in vivo luciferase studies; design: species or system nude mice
# Excerpt: [formula] Where: • Σalive = total number of mice alive per concentration at the end of experiment times photon count, Eluc = total number of mice alive showing luciferase expression per concentration at end of experiment and c represents control untreated animals times photon count and ∑c-initial represents the initial number of animals in control at start of experiment times photon count.
# ZR-71 = experiment: Matrigel invasion assay (modified Boyden chamber), ZR-71; format: cell-based; conditions: cells treated 48 h
# Protocol: as §5, §6
# MDA-MB-231 cells = experiment: In vitro angiogenic assay (conditioned media on human dermal endothelial cells), MDA-MB-231; format: cell-based; conditions: control condition and after radiation
# Protocol: as §4
# 4910 cells = experiment: Western blot analysis for AKT, ERK and Pi3k, 4910; format: cell-based, human; conditions: decrease enhanced after radiation
# Protocol: (§7) Western blot analysis of 4910, 5310 and U87 glioma cells and MDAMB231 and ZR71 breast cancer cells in the presence of specified concentrations of compounds were assessed as per standard protocols. Cells were treated with AN019, AN024 or Temozolomide at the specified concentrations. 24h after treatment, cells were collected and cell lysates extracted. Equal quantities of proteins were fractionated by SDS-PAGE. The fractionated proteins were blotted on to nylon membranes and immunoprobed for AKT, ERK and Pi3k. Breast cancer cell protein isolates were additionally immunoprobed for EGFR, ErbB1, ErbB2 and ErbB3.
# ZR-71 cells = experiment: In vitro angiogenic assay (conditioned media on human dermal endothelial cells), ZR-71; format: cell-based
# Protocol: as §4
# 4910 = experiment: Matrigel invasion assay (modified Boyden chamber), 4910; format: cell-based, human; conditions: cells treated 48 h
# Protocol: as §5, §6
# U87 = experiment: Matrigel invasion assay (modified Boyden chamber), U87; format: cell-based; conditions: cells treated 48 h
# Protocol: as §5, §6
# K562 = experiment: ED50 (po) and therapeutic index in leukemic mice (K562)
# Baf3E255K = experiment: In vivo anti-leukemic activity, blast cell count in blood smears, Baf3E255K implanted nude mice; conditions: Imatinib 10mg/kg, AN019 20mg/kg, AN024 20mg/kg, oral gavage or ip from day 15; up to day 42
# Excerpt: as §1, §2, §3
# [3] = system: 4910 human glioma xenograft cells; experiment: Glioma radiation study, intracranially implanted 4910 cells; format: in vivo, Nude mice
# Protocol: Nude mice were intracranially implanted with 4910 human glioma xenograft cells (1x10^6 cells). Ten days after implantation mice were treated with AN019, AN024 or temozolomide with or without radiation (5Gy/week). The experiment was terminated at day 40 post implantation.
# U87 glioma cells = experiment: In vitro angiogenic assay (conditioned media on human dermal endothelial cells), U87; format: cell-based; conditions: with and without radiation
# Protocol: as §4
# U87 cells = experiment: Western blot analysis for AKT, ERK and Pi3k, U87; format: cell-based; conditions: decrease was enhanced after radiation
# Protocol: as §7
# [4] = system: Glioma xenograft cells 4910; experiment: In vitro angiogenic assay (conditioned media on human dermal endothelial cells), 4910; format: cell-based; conditions: 4910 cells, with and without radiation
# Protocol: as §4
# [5] = system: 4910, 5310 and U87 glioma cells and MDAMB231 and ZR71 breast cancer cells; experiment: Western blot analysis for pAKT and pERK (cell line not specified); format: cell-based; conditions: with and without radiation
# Protocol: as §7
# K5621uc cells = experiment: Drug temporal penetrance (Tp) after stopping drug treatment; format: in vivo, nude mice; conditions: AN019 20mg/kg, AN024 20mg/kg, Imatinib 10mg/kg, daily ip from day 15, stopped on day 35, imaged till day 45
# Protocol: The temporal penetrance was calculated applying the following equation, Tp=. (((P)/(n))a -((P)/(n))ter)/(((P)/(n))a -((P)/(n))b) [formula]
# Where: • P=photon counts at day 'a', day 'ter', or day 'b' where 'a' is the day when drug treatment was stopped and 'ter' is the day when the experiment was terminated and 'b' is the day where P is minimum after day a but before day 'ter'. • n=number of animals alive when P was measured.
# The animals were imaged at 6 day intervals post transplantation. […] Drug treatment was stopped on day 35 and animals were imaged till day 45, and calculated as described in methods.
# ZR71 = experiment: Western blot analysis for AKT, ERK and Pi3k, ZR71; format: cell-based
# Protocol: as §7
# MDA-MB-231 = experiment: Matrigel invasion assay (modified Boyden chamber), MDA-MB-231; format: cell-based; conditions: cells treated 48 h
# Protocol: as §5, §6
compound,measurement,setting,value
Cc1ccc(NC(=O)c2cccc(S(=O)(=O)C(F)(F)F)c2)cc1Nc1nccc(-c2cccnc2)n1 [AN024],curative effect after withdrawal of drug treatment (animals cured at day 58),"[1]; drug treatment stopped at day 42, based on luminescence (Fig. 20)",continued to show curative effect
same,Blast cell count from blood smears after withdrawal of drug treatment,[1]; drug treatment withdrawn on day 42 (Fig. 21),showed effectiveness after withdrawal of drug treatment
same,mortality,"[1]; treatment from day 15 till day 42, then withdrawn, AN024 death determined to be other than leukemia",showed mortality on day 38
same,animals showing no signs of leukemia / complete absence of leukemic symptoms,"[1]; treatment from day 15 till day 42, then withdrawn, AN024 on day 55",8 of the 10 animals
same,blast cell count in blood smears,Baf3T315I,significant decrease in blast cell count and was superior to AN019 treatment at day 42
same,inhibition of angiogenesis,5310 cells,"inhibition of angiogenesis was seen in control conditions, whereas angiogenesis further inhibited after radiation treatment"
same,+Radiation % Invasion,"5310; 5310, with radiation",32%
same,-Radiation % Invasion,"5310; 5310, without radiation",27%
same,blast cell count in blood smears,Baf3M351T,significant decrease in blast cell count and was superior to AN019 treatment at day 42
same,De (drug effectiveness),[2]; 5mg/kg,30.00%
same,De (drug effectiveness),[2]; 10mg/kg,85.00%
same,De (drug effectiveness),[2]; 20mg/kg,87.00%
same,De (drug effectiveness),[2]; 40mg/kg,90.00%
same,+Radiation % Invasion,"ZR-71; ZR-71, with radiation",45%
same,-Radiation % Invasion,"ZR-71; ZR-71, without radiation",48%
same,inhibition of angiogenesis,MDA-MB-231 cells,only a slight inhibition was observed in control and radiation treatments
same,AKT levels,4910 cells,decrease in AKT levels
same,inhibition of angiogenesis,ZR-71 cells,complete inhibition of angiogenesis
same,+Radiation % Invasion,"4910; 4910, with radiation",39%
same,-Radiation % Invasion,"4910; 4910, without radiation",56%
same,+Radiation % Invasion,"U87; U87, with radiation",29%
same,-Radiation % Invasion,"U87; U87, without radiation",53%
same,Therapeutic index-LD50/ED50,K562,144
same,blast cell count in blood smears,Baf3E255K,significant decrease in blast cell count and was superior to AN019 treatment at day 42
same,animals cured / no observable intracranial tumor,"[3]; with radiation (5Gy/week), terminated at day 40",7 of 10 animals
same,"intracranial tumours (size, appearance)",[3]; without radiation,showed presence of intracranial tumours but the tumours were well defined and not showing diffuse edges
same,animals cured / complete absence of intracranial tumours,"[3]; without radiation, treatment from ten days after implantation, terminated at day 40",3 of 10 animals
same,inhibition of angiogenesis,U87 glioma cells,significant retardation in angiogenesis with an increase in inhibition after radiation
same,ERK levels,U87 cells,slight decrease in ERK levels
same,inhibition of angiogenesis,[4],significant inhibition of angiogenesis both with and without radiation
same,levels of pERK,[5],reduction on pERK levels but to a lesser extent than AN019
same,Tp (temporal penetrance),K5621uc cells,2.4
same,PI3k levels,"ZR71; ZR71 (cell line by context), with and without radiation",decrease in PI3k levels after radiation
same,AKT levels,"ZR71; ZR71, unirradiated and after radiation","did not show any significant change under unirradiated conditions, whereas after radiation AN024 treated cells showed a decrease in AKT expression"
same,+Radiation % Invasion,"MDA-MB-231; MDA-MB-231, with radiation",47%
same,-Radiation % Invasion,"MDA-MB-231; MDA-MB-231, without radiation",43%
